In patent publication US9365572B2, “PI3K and/or mTOR inhibitor” (XUANZHU PHARMA CO., LTD., priority 2012, dated 2016):

Assays:
GABAB1A = GABAB1A (Homo sapiens (Human), UniProt Q9UBS5); assay: Radioligand binding assay No. 228610; conditions: test substance 10 μM, read-out: Inhibitory rate (%), GABAB1A
MCF-7 = assay: In vitro cytological inhibitory activity (XTT); type: cell-based; conditions: Homo sapiens, MCF7, 72 hrs
Experimental: MCF-7: Human breast carcinoma cell line;
(§1) 1. Preparation of agents and compounds:
(§2) • 1.1 Preparation of phosphoric acid buffering solution (PBS): 8 g NaCl, 0.2 g KCl, 1.44 g Na2HPO4 and 0.24 g KH2PO4 were weighed and added to 800 mL ultrapure water. The mixture was adjusted to pH=7.4, and ultrapure water was added to the metered volume of IL. Then the autoclaving was conducted for 20 mins. • 1.2 Preparation of XTT detection working solution: 100 mg (2,3-Bis-(2-methoxy-4-nitro-5-sulfophenyl)-2H-tetrazolium-5-carboxanilide); 2,3-bis(2-methoxy-4-nitro-5-sulfophenyl)-5-[(phenylamino)carbonyl]-2H-tetrazolium hydroxide (XTT) powder was weighed, and dissolved under protection from light 300 mL of phenol red-free and serum-free RPMI1640 culture, which had been warmed up to 50° C. The resulting mixture was filtered, packaged and used immediately or in one week. The complete process was conducted under protection from light. • 1.3 Preparation of the test compound • Preparation of the stock solution of the test compound: The test compound powder was dissolved in DMSO in a concentration of 10 mM. • Preparation of the gradiently diluted solution of the test compound: 10 mM of the stock solution of the test compound was successively and gradiently diluted with DMSO by 4 folds for 10 concentrations. […]

Sodium Channel, Site2 = assay: Radioligand binding assay No. 279510; conditions: test substance 10 μM; rat
[1] = biological target: Serotonin (5-Hydroxytryptamine) 5-HT3 (Homo sapiens (Human), UniProt P46098); assay: Radioligand binding assay No. 271910; conditions: test substance 10 μM, read-out: Inhibitory rate (%), Serotonin (5-Hydroxytryptamine) 5-HT3
Chain of Serotonin (5-Hydroxytryptamine) 5-HT3 (P46098 24-478): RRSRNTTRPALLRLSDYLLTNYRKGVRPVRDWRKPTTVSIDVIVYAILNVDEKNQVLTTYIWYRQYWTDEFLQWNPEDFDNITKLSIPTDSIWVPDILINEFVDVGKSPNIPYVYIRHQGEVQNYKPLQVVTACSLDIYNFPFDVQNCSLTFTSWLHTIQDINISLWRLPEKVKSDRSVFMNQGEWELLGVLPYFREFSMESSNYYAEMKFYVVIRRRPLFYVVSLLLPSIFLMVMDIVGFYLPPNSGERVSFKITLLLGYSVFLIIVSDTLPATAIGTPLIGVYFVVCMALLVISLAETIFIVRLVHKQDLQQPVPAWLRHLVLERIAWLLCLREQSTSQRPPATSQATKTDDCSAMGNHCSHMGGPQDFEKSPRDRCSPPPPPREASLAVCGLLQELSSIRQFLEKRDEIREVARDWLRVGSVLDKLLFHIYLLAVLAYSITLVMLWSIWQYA

A498 = assay: In vitro cytological inhibitory activity (XTT); type: cell-based; conditions: Homo sapiens, 72 hrs
Experimental: A498: Human renal carcinoma cell line.
as §1, §2

[2] = biological target: Nicotinic Acetylcholine α1, Bungarotoxin (Homo sapiens (Human), UniProt P02708+P07510+Q07001); assay: Radioligand binding assay No. 258700; conditions: read-out: Inhibitory rate (%), Nicotinic Acetylcholine α1, Bungarotoxin
Adrenergic β2 = Adrenergic β2 (Homo sapiens (Human), UniProt P07550); assay: Radioligand binding assay No. 204110; conditions: test substance 10 μM, read-out: Inhibitory rate (%), Adrenergic β2
Chain of Adrenergic β2 (P07550 whole entry): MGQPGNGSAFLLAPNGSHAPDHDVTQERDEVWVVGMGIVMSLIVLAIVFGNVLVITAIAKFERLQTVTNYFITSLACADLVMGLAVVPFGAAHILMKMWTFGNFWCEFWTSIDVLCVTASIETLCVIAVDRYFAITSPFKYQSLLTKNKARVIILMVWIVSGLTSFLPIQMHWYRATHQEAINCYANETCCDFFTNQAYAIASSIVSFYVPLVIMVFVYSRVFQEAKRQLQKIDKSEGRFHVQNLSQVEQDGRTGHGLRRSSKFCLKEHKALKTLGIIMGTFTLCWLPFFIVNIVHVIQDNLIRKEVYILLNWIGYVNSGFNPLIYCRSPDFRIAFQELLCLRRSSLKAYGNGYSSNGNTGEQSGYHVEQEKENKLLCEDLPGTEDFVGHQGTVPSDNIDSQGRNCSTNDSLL

[3] = test system: GABAA, Flunitrazepam, Central; assay: Radioligand binding assay No. 226600; conditions: test substance 10 μM; rat
BRAF V600E = BRAF V600E (Homo sapiens (Human), UniProt P15056, V600E); assay: Kinase selectivity, Lanthascreen analysis method; type: biochemical
Chain of BRAF V600E (P15056 whole entry V600E): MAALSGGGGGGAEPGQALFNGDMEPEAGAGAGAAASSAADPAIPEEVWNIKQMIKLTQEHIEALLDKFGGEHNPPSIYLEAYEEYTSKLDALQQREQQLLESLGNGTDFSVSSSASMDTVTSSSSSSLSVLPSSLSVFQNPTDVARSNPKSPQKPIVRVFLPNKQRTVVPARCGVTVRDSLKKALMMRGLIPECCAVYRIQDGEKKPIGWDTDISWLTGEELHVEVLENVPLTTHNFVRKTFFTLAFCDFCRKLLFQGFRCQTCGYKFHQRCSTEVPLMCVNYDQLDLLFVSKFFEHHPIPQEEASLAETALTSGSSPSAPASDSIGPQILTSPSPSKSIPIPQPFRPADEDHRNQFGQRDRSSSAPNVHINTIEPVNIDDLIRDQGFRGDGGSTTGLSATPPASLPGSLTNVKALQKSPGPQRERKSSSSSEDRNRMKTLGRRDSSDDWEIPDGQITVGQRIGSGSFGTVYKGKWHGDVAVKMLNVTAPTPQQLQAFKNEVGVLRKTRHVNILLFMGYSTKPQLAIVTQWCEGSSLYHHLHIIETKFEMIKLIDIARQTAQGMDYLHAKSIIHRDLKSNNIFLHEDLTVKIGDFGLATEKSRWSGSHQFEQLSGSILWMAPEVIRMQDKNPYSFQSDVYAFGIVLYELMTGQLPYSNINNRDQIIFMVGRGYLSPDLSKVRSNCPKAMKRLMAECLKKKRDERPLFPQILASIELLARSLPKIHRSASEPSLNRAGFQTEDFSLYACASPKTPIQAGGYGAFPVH

Adrenergic α1D = Adrenergic α1D (Homo sapiens (Human), UniProt P25100); assay: Radioligand binding assay No. 203400; conditions: test substance 10 μM, read-out: Inhibitory rate (%), Adrenergic α1D
Chain of Adrenergic α1D (P25100 whole entry): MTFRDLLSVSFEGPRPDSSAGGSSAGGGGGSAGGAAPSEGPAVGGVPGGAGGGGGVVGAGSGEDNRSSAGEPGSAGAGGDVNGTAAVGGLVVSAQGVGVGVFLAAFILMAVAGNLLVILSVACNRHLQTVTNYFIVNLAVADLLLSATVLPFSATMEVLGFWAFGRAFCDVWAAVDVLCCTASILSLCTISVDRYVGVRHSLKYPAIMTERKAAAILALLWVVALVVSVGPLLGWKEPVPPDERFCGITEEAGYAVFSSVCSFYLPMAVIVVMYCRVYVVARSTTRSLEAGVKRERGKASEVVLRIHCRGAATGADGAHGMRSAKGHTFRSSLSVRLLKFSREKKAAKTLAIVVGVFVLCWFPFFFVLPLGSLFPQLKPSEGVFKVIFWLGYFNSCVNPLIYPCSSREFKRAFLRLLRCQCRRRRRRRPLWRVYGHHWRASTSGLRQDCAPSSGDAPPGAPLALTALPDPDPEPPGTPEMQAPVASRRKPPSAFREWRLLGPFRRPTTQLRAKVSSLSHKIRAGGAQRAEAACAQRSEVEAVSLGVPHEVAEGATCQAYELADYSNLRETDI

Melatonin MT1 = Melatonin MT1 (Homo sapiens (Human), UniProt P48039); assay: Radioligand binding assay No. 251600; conditions: test substance 10 μM, read-out: Inhibitory rate (%), Melatonin MT1
Endothelin ETA = Endothelin ETA (Homo sapiens (Human), UniProt P25101); assay: Radioligand binding assay No. 224010; conditions: test substance 10 μM, read-out: Inhibitory rate (%), Endothelin ETA
Purinergic P2Y = assay: Radioligand binding assay No. 268810; conditions: test substance 10 μM; rat
Prostanoid EP4 = Prostanoid EP4 (Homo sapiens (Human), UniProt P35408); assay: Radioligand binding assay No. 268420; conditions: test substance 10 μM, read-out: Inhibitory rate (%), Prostanoid EP4
Chain of Prostanoid EP4 (P35408 whole entry): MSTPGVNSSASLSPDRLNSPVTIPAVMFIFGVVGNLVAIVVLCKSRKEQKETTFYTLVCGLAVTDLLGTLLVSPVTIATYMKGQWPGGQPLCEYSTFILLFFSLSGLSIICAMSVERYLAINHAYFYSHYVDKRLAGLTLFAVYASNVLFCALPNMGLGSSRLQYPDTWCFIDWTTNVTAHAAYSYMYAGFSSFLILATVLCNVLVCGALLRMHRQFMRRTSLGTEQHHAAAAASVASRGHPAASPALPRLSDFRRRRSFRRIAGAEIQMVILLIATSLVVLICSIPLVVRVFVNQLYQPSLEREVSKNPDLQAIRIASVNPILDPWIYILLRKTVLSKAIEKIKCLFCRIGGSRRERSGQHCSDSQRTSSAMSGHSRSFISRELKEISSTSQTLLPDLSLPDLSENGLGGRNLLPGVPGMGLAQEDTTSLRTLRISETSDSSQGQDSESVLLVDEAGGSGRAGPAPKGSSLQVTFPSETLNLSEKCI

Dopamine D4.2 = Dopamine D4.2 (Homo sapiens (Human), UniProt P21917, DEL265-296); assay: Radioligand binding assay No. 219900; conditions: test substance 10 μM, read-out: Inhibitory rate (%), Dopamine D4.2
Chain of Dopamine D4.2 (P21917 other isoform, or with tags, fused parts or gaps del 265-296): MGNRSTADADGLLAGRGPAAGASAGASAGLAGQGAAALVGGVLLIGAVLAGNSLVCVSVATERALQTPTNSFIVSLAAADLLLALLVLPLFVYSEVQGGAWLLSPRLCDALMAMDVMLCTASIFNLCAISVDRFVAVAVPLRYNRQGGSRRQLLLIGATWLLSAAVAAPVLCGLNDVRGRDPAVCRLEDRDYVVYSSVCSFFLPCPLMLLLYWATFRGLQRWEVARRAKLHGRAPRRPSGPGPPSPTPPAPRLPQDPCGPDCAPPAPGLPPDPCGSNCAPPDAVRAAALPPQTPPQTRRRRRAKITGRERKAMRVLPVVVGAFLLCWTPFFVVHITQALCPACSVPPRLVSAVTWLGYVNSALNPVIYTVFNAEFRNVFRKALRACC

Adrenergic α1B = Adrenergic α1B (Rattus norvegicus (Rat), UniProt P15823); assay: Radioligand binding assay No. 203200; conditions: test substance 10 μM, read-out: Inhibitory rate (%), Adrenergic α1B
Chain of Adrenergic α1B (P15823 whole entry): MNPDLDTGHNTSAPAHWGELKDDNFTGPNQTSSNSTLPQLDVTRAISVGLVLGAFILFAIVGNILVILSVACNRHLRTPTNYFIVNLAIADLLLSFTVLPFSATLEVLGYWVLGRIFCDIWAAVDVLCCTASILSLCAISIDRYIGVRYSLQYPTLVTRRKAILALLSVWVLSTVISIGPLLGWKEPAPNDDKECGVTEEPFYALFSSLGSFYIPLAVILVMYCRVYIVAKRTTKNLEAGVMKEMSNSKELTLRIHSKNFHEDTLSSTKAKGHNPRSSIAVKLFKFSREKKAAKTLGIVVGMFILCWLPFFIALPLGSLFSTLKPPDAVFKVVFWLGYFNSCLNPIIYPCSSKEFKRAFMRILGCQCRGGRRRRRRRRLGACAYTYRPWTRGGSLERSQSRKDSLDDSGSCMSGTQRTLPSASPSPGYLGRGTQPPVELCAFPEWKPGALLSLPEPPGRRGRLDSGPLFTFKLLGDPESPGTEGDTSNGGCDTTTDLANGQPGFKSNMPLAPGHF

Dopamine D3 = Dopamine D3 (Homo sapiens (Human), UniProt P35462); assay: Radioligand binding assay No. 219800; conditions: test substance 10 μM, read-out: Inhibitory rate (%), Dopamine D3
Chain of Dopamine D3 (P35462 whole entry): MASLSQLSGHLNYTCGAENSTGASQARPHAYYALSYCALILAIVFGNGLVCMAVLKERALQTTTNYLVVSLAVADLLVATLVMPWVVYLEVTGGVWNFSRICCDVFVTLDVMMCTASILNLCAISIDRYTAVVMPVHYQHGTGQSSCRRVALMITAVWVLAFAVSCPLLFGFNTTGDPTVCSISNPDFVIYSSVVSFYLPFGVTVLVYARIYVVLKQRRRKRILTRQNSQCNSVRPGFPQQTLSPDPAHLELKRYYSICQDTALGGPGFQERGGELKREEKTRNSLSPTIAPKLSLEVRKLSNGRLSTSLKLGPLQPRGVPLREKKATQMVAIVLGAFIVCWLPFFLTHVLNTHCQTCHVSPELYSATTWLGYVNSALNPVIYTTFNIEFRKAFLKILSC

Thyroid Hormone = assay: Radioligand binding assay No. 285900; conditions: test substance 10 μM; rat

Chain of GABAB1A (Q9UBS5 15-961): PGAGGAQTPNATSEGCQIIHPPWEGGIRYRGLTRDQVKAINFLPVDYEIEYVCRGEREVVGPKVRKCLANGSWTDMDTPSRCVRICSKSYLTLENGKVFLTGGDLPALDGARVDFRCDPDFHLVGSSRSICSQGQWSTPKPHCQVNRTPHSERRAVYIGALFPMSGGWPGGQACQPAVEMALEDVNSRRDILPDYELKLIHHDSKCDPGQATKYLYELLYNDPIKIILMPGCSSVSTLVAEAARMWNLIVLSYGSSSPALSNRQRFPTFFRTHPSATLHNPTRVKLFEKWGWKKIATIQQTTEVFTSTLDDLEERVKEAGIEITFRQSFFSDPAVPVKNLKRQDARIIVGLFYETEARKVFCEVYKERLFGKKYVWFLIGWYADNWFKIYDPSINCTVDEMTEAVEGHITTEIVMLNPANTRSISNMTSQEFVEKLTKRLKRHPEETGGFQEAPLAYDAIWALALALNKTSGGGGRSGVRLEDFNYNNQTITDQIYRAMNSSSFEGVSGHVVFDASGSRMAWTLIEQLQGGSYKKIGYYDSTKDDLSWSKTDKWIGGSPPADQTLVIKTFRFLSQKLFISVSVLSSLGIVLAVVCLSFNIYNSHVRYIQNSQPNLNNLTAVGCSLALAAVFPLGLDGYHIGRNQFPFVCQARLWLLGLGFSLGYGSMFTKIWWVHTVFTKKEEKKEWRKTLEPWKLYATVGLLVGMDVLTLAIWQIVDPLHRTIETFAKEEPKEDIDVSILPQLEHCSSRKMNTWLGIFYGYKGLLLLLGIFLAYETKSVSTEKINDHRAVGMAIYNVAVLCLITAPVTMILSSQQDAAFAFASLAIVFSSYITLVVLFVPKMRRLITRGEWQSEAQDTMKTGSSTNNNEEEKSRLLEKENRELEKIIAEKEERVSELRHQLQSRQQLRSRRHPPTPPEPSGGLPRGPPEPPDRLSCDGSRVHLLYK

`Nc1ccc(-c2ccc3ncc4c(=O)[nH]c(=O)n(-c5cccc(C(F)(F)F)c5)c4c3n2)cn1` [Compound 5, 9-(6-aminopyridin-3-yl)-1-(3-(trifluoromethyl)phenyl)pyrimido[5,4-c][1,5]naphthyridine-2,4(1H,3H)-dione] was tested, and the inhibition at 10 µM (GABAB1A) was 15%, the IC50 (MCF-7) was 28.2 nM and the “Inhibitory rate (%), Sodium Channel, Site2” value (Sodium Channel, Site2) was 7%. The inhibition at 10 µM [1] was 8%, the IC50 (A498) was 83.7 nM and the inhibition at 10 µM [2] was 4%. The inhibition at 10 µM (Adrenergic β2) was 17%, the “Inhibitory rate (%), GABAA, Flunitrazepam, Central” value [3] was 34% and the IC50 (BRAF V600E) was over 10000 nM. For the same compound, the inhibition at 10 µM (Adrenergic α1D) was 9%, the inhibition at 10 µM (Melatonin MT1) was 17% and the inhibition at 10 µM (Endothelin ETA) was 3%. The “Inhibitory rate (%), Purinergic P2Y” value (Purinergic P2Y) was 9%, the inhibition at 10 µM (Prostanoid EP4) was 19% and the inhibition at 10 µM (Dopamine D4.2) was 12%. For the same compound, the inhibition at 10 µM (Adrenergic α1B) was 21%, the inhibition at 10 µM (Dopamine D3) was 15% and the “Inhibitory rate (%), Thyroid Hormone” value (Thyroid Hormone) was 9%.
